Experimental data as given in patent US12065485B2, “Treatment of staphylococcal disorders” (priority 2013, dated 2024).
Where a name gives a salt, the structure may show the parent alone.

tested on: P3 promoter (RNAIII / delta-toxin expression); assay: USA300-P3-Luc reporter screen for inhibition of RNAIII induction (P3 promoter activation by AIP); type: cell-based, Staphylococcus aureus; details: 40 μM compound, 2 hours at 37° C., luminescence; relative to positive control (USA400 inhibitory AIP supernatant)
Protocol: Staphylococcus aureus pulse-field gel electrophoresis (PFGE) type USA300 transformed with a plasmid containing the P3 promoter followed by the luciferase gene (USA300-P3-Luc) was grown in tryptic soy broth (TSB) to […] (5×10^8 CFU/mL), as determined by optical density at 600 nm, from overnight cultured bacteria and harvested via centrifugation (4,000×g, 4° C., 5 minutes). Supernatant was removed and the bacterial pellet was washed twice with an equal volume of PBS. Bacteria were suspended in PBS at 5×10^8 CFU/mL, as confirmed by plating serial dilutions onto TSB. 2×10^6 CFU washed USA300-P3-Luc was incubated with wt USA300 8-hour filtered supernatant containing stimulatory auto-inducing peptide (AIP) at a final dilution of 1:10 and 40 μM each compound in a total of 40 μL/well of TSB on a 384-well plate. The S. aureus two-component agr system induces delta-toxin expression via expression of AIP at stationary growth phase and was used to stimulate activation of the P3 promoter. Alternatively, AIP produced by a different S. aureus strain, PFGE type USA400, acts to inhibit delta-toxin expression in USA300. As a positive control, samples were incubated with USA400 8-hour filtered supernatant containing inhibitory AIP at a final dilution of 1:10 instead of test compound. Samples were incubated at 37° C. for 2 hours, then analyzed for luminescence and optical density at 600 nm. Percent Inhibition was determined by the following formula: Percent inhibition=100×(LumNo Inhibitor−Lumcompound)/(LumNo Inhibitor.−LumPositive control). Inhibitory compounds suitable for use in methods of inhibiting skin inflammation according to the disclosure were identified (Table 2) based on at least a 40% inhibition relative to the positive control, minimal reduction in growth as determined by optical density at 600 nm, and relatively low promiscuity (<10%) in relation to other high-throughput assays performed using these compounds.

SMILES	% Inhibition [%]
COc1ccc(CNC(=O)Nc2ncc([N+](=O)[O-])s2)cc1 [361549, GSK-3b Inhibitor VIII, GSK-3b Inhibitor VIII]	73.7
NCCCNCCCCNC(=O)C(NC(=O)CCCCCN=C(N)N)c1ccc(Br)cc1 (centres unmarked) [4Br-AHX]	55.8
O=c1c(O)c(-c2ccccc2)oc2cc(O)cc(O)c12 [Galangine]	79.5
O=C(O)c1ccccc1Nc1cccc2c1C(=O)c1cccc(Nc3ccccc3C(=O)O)c1C2=O [NCI16221]	49.9
C[C@@H]1CC[C@@]2(OC1)O[C@H]1C[C@H]3[C@@H]4CC[C@@H]5C[C@@H](O)CC[C@]5(C)[C@H]4CC[C@]3(C)[C@H]1[C@@H]2C [SMILAGENIN]	75.3
Cc1ccc(S(=O)(=O)N[C@@H](Cc2ccccc2)C(=O)CCl)cc1 [TPCK]	87.8
CCCC[C@@H](CC)COC(=O)C(C#N)=C(c1ccccc1)c1ccccc1 [OCTOCRYLENE | EUSOLEX, OCTOCRYLENE]	97.9
CC(=O)Oc1cccc2c1C(=O)c1c(OC(C)=O)cc(C(=O)O)cc1C2=O [DIACERIN]	76

same assay, conditions: Staphylococcus aureus, USA300, 2 h

SMILES	inhibition at 40 µM [%]
C=C1C[C@]23C[C@@]1(O)CC[C@H]2[C@@]12C=C[C@H](O)[C@@](C)(C(=O)O1)[C@H]2[C@@H]3C(=O)O [G[…]]	60.5

same assay, conditions: Staphylococcus aureus; 40 μM compound, 2 hours at 37° C., luminescence; relative to positive control (USA300 inhibitory AIP supernatant); read-out: % Inhibition

SMILES	inhibition at 40 µM [%]
Cc1cc(O)c2c(c1)C(=O)c1cccc(O)c1C2=O [CHRYSOPHANOL]	47.2
COc1cc(C)c(Cc2cnc(N)nc2N)cc1OC [CPD000466374_ORMETOPRIM, ORMETOPRIM]	53.2
NCCOB(c1ccccc1)c1ccccc1 [AMINOETHOXYDIPHENYLBORANE]	82.1
C#C[C@]1(O)CC[C@H]2[C@@H]3CCC4=Cc5oncc5C[C@]4(C)[C@H]3CC[C@@]21C [DANAZOL]	47.4
C/C=C(/C(=C/C)c1ccc(O)cc1)c1ccc(O)cc1 [DIENESTROL]	90.8
CC(C)c1nc(CN(C)C(=O)N[C@H](C(=O)N[C@@H](Cc2ccccc2)C[C@H](O)[C@H](Cc2ccccc2)NC(=O)OCc2cncs2)C(C)C)cs1 [CPD000466395_RITONAVIR, RITONAVIR]	85.7
O=C(O)Cc1ccccc1Nc1c(Cl)cccc1Cl [Benzeneacetic acid, 2-[(2,6-dichlorophenyl)amino]-, monosodium salt]	65.1
CCC(=O)O[C@H]1CC[C@H]2[C@@H]3CCC4=CC(=O)CC[C@]4(C)[C@H]3CC[C@]12C [TESTOSTERONE PROPIONATE]	65.7
O=C(c1ccc(F)cc1)C1CCN(CCn2c(=S)[nH]c3ccccc3c2=O)CC1 [CPD000466283_Altanserin, Altanserin]	59
Nc1ccc(/N=N/c2ccccc2)c(N)n1 [PHENAZOPYRIDINE HYDROCHLORIDE]	75.5
O=C(/C=C/c1ccc(O)cc1)c1ccccc1O [2′,4-DIHYDROXYCHALCONE]	71.9
Cc1ccc(Cl)c(Nc2ccccc2C(=O)O)c1Cl [SODIUM MECLOFENAMATE]	90.9
Cc1ccsc1C(=CCCN1CCC[C@@H](C(=O)O)C1)c1sccc1C [CPD000469176_TIAGABINE HCl, TIAGABINE HCl]	69.7
CCCc1c(OCCCCc2nnn[nH]2)ccc(C(C)=O)c1O [CPD000058555_LY 171883, LY 171883]	48.7
CC(C)c1cc2c(c(O)c1O)[C@@]1(C(=O)O)CCCC(C)(C)[C@@H]1CC2 [CARNOSIC ACID]	95.8
C#C[C@]1(O)CC[C@H]2[C@@H]3CCC4=CC(=O)CC[C@@H]4[C@H]3CC[C@@]21C [NORETHINDRONE]	52.4
COC(=O)CC[C@@H](C)[C@H]1CC[C@H]2[C@@H]3CC[C@@H]4C[C@H](O)CC[C@]4(C)[C@H]3C[C@H](O)[C@]12C [METHYL DEOXYCHOLATE]	78.9
O=C(N/N=C/c1ccc([N+](=O)[O-])o1)c1cc([N+](=O)[O-])cc([N+](=O)[O-])c1O [NIFURSOL]	63.9
Oc1c2ccccc2c2c3c(cccc13)N=N2 [SP 600125]	45.3
COC(=O)[C@H](c1ccccc1Cl)N1CCc2sccc2C1 [CLOPIDOGREL SULFATE]	69.4
C=C1CC[C@H](O)C/C1=C/C=C1\CCC[C@]2(C)[C@@H]([C@H](C)/C=C/[C@H](C)C(C)C)CC[C@@H]12 [ERGOCALCIFEROL]	51.9
CC[C@H](c1ccc(O)cc1)[C@@H](CC)c1ccc(O)cc1 [HEXESTROL]	99.9

SMILES	inhibition at 40 µM [%]
Cc1cc(CC(=O)O)n(C)c1C(=O)c1ccc(Cl)cc1 [ZOMEPIRAC SODIUM]	64.8
Cc1c(Nc2ncccc2C(=O)O)cccc1C(F)(F)F [FLUNIXIN MEGLUMINE | BANAMINE, FLUNIXIN MEGLUMINE]	69.2
c1ccc2c(c1)sc1ccccc12 [DIBENZOTHIOPHENE]	50.7
O=C1c2cccc(O)c2C(=O)c2c(O)cccc21 [DANTRON]	76.1
COc1ccc(-c2c(O)c3c(OC)c4c(cc3oc2=O)OC(C)(C)C=C4)cc1 [ROBUSTIC ACID]	96.9
O=C(O)c1cc2cc(Cl)ccc2[nH]1 [5-CHLOROINDOLE-2-CARBOXYLIC ACID]	47.8
CCOc1cc(CC(=O)N[C@@H](CC(C)C)c2ccccc2N2CCCCC2)ccc1C(=O)O [CPD000466305_REPAGLINIDE, REPAGLINIDE]	49
O=C(NC(=O)c1c(F)cccc1F)Nc1cc(Cl)c(OC(F)(F)C(F)C(F)(F)F)cc1Cl (centres unmarked) [LUFENURON | PROGRAM, LUFENURON]	55.8
Oc1cc2c(cc1O)C1c3ccc(O)c(O)c3OCC1(O)C2 (centres unmarked) [HAEMATOXYLIN]	62.9
CSc1ccc(/C=C2/C(C)=C(CC(=O)O)c3cc(F)ccc32)cc1 [Sulindac Sulfide]	72.4
O=C1C(Cl)=C(Cl)C(=O)C(Cl)=C1Cl [CHLORANIL]	47.7
Oc1nc(-c2ccc(C(F)(F)F)cc2)nc2c1CSCC2 [XAV939]	53.4
CC(=O)O[C@]1(C(C)=O)CC[C@H]2[C@@H]3C=C(C)C4=CC(=O)CC[C@]4(C)[C@H]3CC[C@@]21C [MEGESTROL ACETATE]	46.5
O=C(O)c1nn(Cc2ccc(Cl)cc2Cl)c2ccccc12 [Lonidamine]	71.3
O=C(O)c1ccccc1Nc1cccc(OCc2ccc3ccccc3n2)c1 [SR 2640]	98.7
CO/N=C1\C[C@]2(C[C@@H]3C[C@@H](C/C=C(\C)C[C@@H](C)/C=C/C=C4\CO[C@@H]5[C@H](O)C(C)=C[C@@H](C(=O)O3)[C@]45O)O2)O[C@H](/C(C)=C/C(C)C)[C@H]1C [MOXIDECTIN | CYDECTIN, MOXIDECTIN]	58.9
O=C1OC(c2ccc(O)cc2)(c2ccc(O)cc2)c2ccccc21 [PHENOLPHTHALEIN]	72.4
CC(C)c1ccc2c(c1)c(SC(C)(C)C)c(CC(C)(C)C(=O)O)n2Cc1ccc(Cl)cc1 [1H-Indole-2-propanoic acid, 1-[(4-chlorophenyl)methyl]-3-[(1,1-dimethylethyl)thio]-Alpha,Alpha-dimethyl-5-(1-methylethyl)-]	86.3
CN1C[C@H](C(=O)N[C@]2(C)O[C@@]3(O)[C@@H]4CCCN4C(=O)[C@H](Cc4ccccc4)N3C2=O)C[C@@H]2c3cccc4[nH]cc(c34)C[C@H]21 [DIHYDROERGOTAMINE MESYLATE]	52.2
C[C@H](CCC(=O)O)[C@H]1CC[C@H]2[C@@H]3CC[C@@H]4CCCC[C@]4(C)[C@H]3CC[C@]12C [URSOCHOLANIC ACID]	61.3
Cc1ccc(Nc2c(F)cccc2Cl)c(CC(=O)O)c1 [LUMIRACOXIB | PREXIGE, LUMIRACOXIB]	60
COc1ccnc(C[S+]([O-])c2nc3ccc(OC(F)F)cc3[nH]2)c1OC (centres unmarked) [PANTOPRAZOLE | PROTONIX, PANTOPRAZOLE]	52.8
